Laboratory results from ChEMBL document CHEMBL1156829 (Proc Natl Acad Sci U S A, 2008).

Legend:
Plasmodium falciparum [1] = assay: NOVARTIS: Inhibition of Plasmodium falciparum 3D7 (drug-susceptible) proliferation in erythrocyte-based infection assay; format: functional, organism-based; settings: Plasmodium falciparum, 3D7
Plasmodium falciparum [2] = assay: NOVARTIS: Inhibition of Plasmodium falciparum W2 (drug-resistant) proliferation in erythrocyte-based infection assay; format: functional, organism-based; settings: Plasmodium falciparum, W2; read-out: EC50
[3] = NOVARTIS: Cytotoxicity against human hepatocellular carcinoma cell line (Huh7); format: toxicity, cell-based, Huh-7; settings: Huh7 cells (hepatocellular carcinoma cell line)

| SMILES | EC50 (Plasmodium falciparum [1]) | EC50 (Plasmodium falciparum [2]) | CC50 [3] |
| --- | --- | --- | --- |
| O=C(NCCc1nc(-c2ccncc2)n[nH]1)C12CC3CC(CC(C3)C1)C2 | > 12.5 µM | 0.0449 µM | > 100 µM |
| Nc1ccc(-c2nc3cc(Oc4ccc5[nH]c(-c6ccc(N)cc6)nc5c4)ccc3[nH]2)cc1 | 0.683 µM | 0.357 µM | 21.4 µM |
| Cc1cc(C)cc(-n2c(C)cc(/C=C3\SC(=Nc4ccc(Br)cc4)NC3=O)c2C)c1 | 2.58 µM | 4.45 µM | > 100 µM |
| NC(=O)Oc1ccc(Cc2ccccc2)cc1 | 0.843 µM | 0.738 µM | > 10 µM |
| COc1ccc(CCNC(=O)c2cc(S(=O)(=O)N3CCC4(CC3)OCCO4)ccc2F)cc1OC | > 1.25 µM | > 1.16 µM | > 10 µM |
| Sc1nc2ccc3nsnc3c2[nH]1 | 0.713 µM | 0.537 µM | > 10 µM |
| O=C1CN(C(=O)CCC2CCCCC2)C(c2ccc(F)cc2)c2cc(F)ccc2N1 (stereo not given) | 0.566 µM | 0.365 µM | 64.4 µM |
| CCCCCCCCCCCC(=O)N(C)CCCNc1ccnc2cc(Cl)ccc12 | 0.223 µM | 0.0273 µM | 3.01 µM |
| CSc1ccc(/C=C/C(=O)NC(=O)c2ccccc2O)cc1 | 0.127 µM | 0.131 µM | > 10 µM |
| CCOC(=O)c1c(NC(=O)C(C)Sc2nnc(CNC(=O)c3ccco3)n2-c2cccc(Cl)c2)sc2c1CCCC2 (stereo not given) | > 12.5 µM | 0.424 µM | > 100 µM |
| NCCCNc1ncc(C(=O)NCc2ccccc2)c(NCC2CCCCC2)n1 | 0.0912 µM | 0.799 µM | 5.14 µM |
| Cn1cnc(S(=O)(=O)Nc2ccccc2C(=O)NCC2CC2)c1 | > 1.47 µM | 0.0821 µM | > 10 µM |
| O=C(c1ccncc1)N1CCN(Cc2ccc3c(c2)OCO3)CC1 | 0.964 µM | 0.176 µM | > 10 µM |
| O=C(COc1ccc(Cl)cc1)NCCCCNc1ccnc2cc(Cl)ccc12 | 0.24 µM | 0.303 µM | > 9.74 µM |
| c1ccc(-c2cc(N3CCOCC3)nc(-c3ccccn3)n2)nc1 | 0.907 µM | 0.372 µM | > 10 µM |
| CC(Oc1ccc(Cl)cc1Cl)c1nc(-c2ccc(NC(=O)c3cccs3)cc2)no1 (stereo not given) | 0.429 µM | 0.631 µM | 25.6 µM |
| Oc1ccccc1-c1nc(-c2ccccc2)nc(-c2ccc(Br)cc2)n1 | > 1.16 µM | > 1.28 µM | > 10 µM |
| C[N+](C)(C)c1nc(N2CCOCC2)nc(N(c2ccccc2)c2ccccc2)n1 | 0.0632 µM | 0.179 µM | > 10 µM |
| CCc1ccc(NC(=O)COC(=O)c2cccs2)cc1 | 4.64 µM | 1.11 µM | > 100 µM |
| COc1cccc(-c2nc3c(OC)ccc(OC)c3cc2CNCC(C)(C)CN(C)C)c1 | 0.244 µM | 0.186 µM | > 10 µM |
| O=[N+]([O-])c1ccc(-c2ccc(C=NNc3nc(Nc4ccccc4)nc(Nc4ccccc4)n3)o2)cc1 | 0.875 µM | 0.933 µM | > 100 µM |
| O=C(NC(Cc1ccccc1)c1nnc(SCc2ccc(F)cc2)n1-c1ccc(Cl)cc1Cl)C1CCCCC1 (stereo not given) | 0.748 µM | 0.35 µM | 1.66 µM |
| CCCC(=O)N(C/C=C/c1ccccc1OC)CCN1CCN(C(=O)Nc2cccc(C)c2)CC1 | > 1.25 µM | 0.148 µM | > 10 µM |
| CC(C)(C)OC(=O)NCC(=O)Oc1cc2oc(=O)cc(-c3ccccc3)c2cc1Cl | > 1.25 µM | > 0.755 µM | > 10 µM |
| Brc1ccc(/C=C/c2cc[n+](Cc3ccccc3)cc2)cc1 | 0.112 µM | 0.0666 µM | > 10 µM |
